Where two headings read alike, the source gives them in different places.

In series [1] the test system is hearts. As to conditions: hearts of rats; cited from earlier work.
Series [2] has as its system hearts. The note with it: hearts of frogs; cited from earlier work.
A short description of series [3]: Single subcutaneous dose of uridine with and without dilazep, plasma/urine uridine pharmacokinetics. The class given is in vivo, rhesus monkeys (Macaca mulatta). The note with it: rhesus monkey, sc. As for the experimental part:
Single dose of Uridine and effect of Dilazep
The uridine was administered both with and without dilazep. When dilazep was given it was administered at either 1 or 2 mg/kg of body weight, dissolved in sterile phosphate-buffed saline (pH 7.4). Samples of blood (3 ml) were collected in heparinized tubes at 0, 5, 10, 15 and 30 minutes and 1, 2, 4 and 6 hours after injection. When possible, urine was also collected by cytocentesis at similar time intervals. The plasma and urine samples were frozen at -20° C. until analysis.
The proteins were removed by centrifugation, and sample temperature was maintained at 5° C. The supernant was removed and an equivalent amount of a 1:1 mixture of ice cold trioctylamine and 1,1,2-trichlorotrifluoroethane (freon) was added. […] Reversed-phased chromatography was performed using a Hypersil ODS 5 μm column (Jones Chromatography, Littleton, Colo.). Urine samples were filtered through a 0.45 μm pore size Acro LC 13 filter (Gelman Sciences, Ann Arbor, Mich.) to remove proteins and 50 μl aliquots were analyzed by HPLC. Isocratic elution was performed at 1 ml/min with 10 mM phosphoric acid and 10 μM heptane sulfonic acid (pH 3.1). Column temperature was maintained at 25° C., and the absorbance was measured at 254 nm. […] After adding 5 ml of Econo-Safe scintillation fluor (Research Products International Corp., Mount Prospect, Ill.), radioactivity was measured by using Beckman Model LS 5000TA liquid scintillation counter (Beckman Instruments, Inc., Fullerton, Calif.) equipped with an automatic quenching correction program. […] The detection limits were 2.0 μM.
The pharmacokinetic parameters of uridine was estimated by […] model-independent methods using a SIPHAR/Base program. The AUC was determined by the trapeziodal rule with extrapolation to time infinity using the terminal disposition slope (K) generated by a weighted nonlinear least-squares regression of an exponential fit of the data, with the weighted square factor set as the reciprocal of the calculated concentration squared. […] The peak plasma concentration (Cmax) values and time to peak plasma concentration (Tmax) values were observed experimental values. Renal clearance (CLR) of uridine was calculated by dividing the […] by the AUC.

The next series deals with heart tissue. The note with it: heart tissue of rabbits; cited from earlier work.
For series [4] the following is noted: cited from earlier work.
For series [5] the following is noted: cited from earlier work. This is another data set of the same source.
Another series relates to bone marrow cell growth. As to conditions: cited from earlier work; for limiting toxicity: in vivo.
The test system of another series is CCl4 damaged rat livers. As to conditions: cited from earlier work.
Another series has as its system GABA receptor. The note with it: cerebellar membranes and brain areas associated with convulsions; cited from earlier work.
The subject of series [6] is hearts. As to conditions: hearts of dogs; cited from earlier work.
Series [7] concerns isolated rat skeletal muscle. The note with it: low concentrations of uridine (10^-4 M); cited from earlier work.
In series [8] the test system is hereditary orotic aciduria. As to conditions: human, in vivo; cited from earlier work.
The nature of series [9]: Administration of dilazep to Rhesus monkeys, plasma uridine levels and toxicity. It is filed as in vivo. As to conditions: dilazep 1 to 2 mg/kg of body weight per day. As to the method: Uridine secretion can be inhibited by administering compounds of the type noted above by Formula (I) or by administering the uridine competing compounds noted above. Uridine secretion inhibiting compounds of the type denoted by Formula (I) typically are administered at preferred doses in the range of about 1 to 5 mg/kg of body weight 2 to 3 times per day. Uridine competing compounds preferably are administered at doses ranging from 5 to 50 mg/kg of body weight 2 to 3 times per day. […] Moreover, such treatment increases by about 4 to 5-fold, the plasma half-life of uridine. These uridine levels are roughly equivalent to those obtained by administering high doses of uridine (1 to 3 g/m^2 per day), without the toxic side effects associated with uridine administration.

The mark [10] stands for this setting: plasma, uridine parameter, 83.3 mg/kg uridine s.c., no dilazep.

With `O=c1ccn([C@@H]2O[C@H](CO)[C@@H](O)[C@H]2O)c(=O)[nH]1` [uridine], the myocardial contractility entry in the series on hearts [1], in the series on hearts [2] and with hearts [6] was “increase myocardial contractility” in each case. This compound also came in with a Cmax/C0 in series [3] (in vivo, 83.3 mg/kg) of 10.7. Moreover, the CL renal in [3] (in vivo, uridine parameter, 83.3 mg/kg uridine s.c., no dilazep, read-out: ClR (renal clearance of uridine) (converted)) was 1.12 mL/min/kg. Also, the AUC (commonly the area under the concentration-time curve, a measure of exposure) in [3] (setting [10]) is 370 µM·h. For the same compound, the Cmax (usually the maximum level reached in the sampled fluid or tissue) in [3] (setting [10]) came out at 175 µM. Also, the time to peak (Tmax) – broadly, the time at which the peak concentration occurs – in [3] (setting [10]) came out at 30 min. Further, in the series with heart tissue, the “myocardial performance, glucose uptake, glycogen synthesis and breakdown of ATP” value was “increase myocardial performance, glucose uptake, glycogen synthesis and the breakdown of ATP”. The “urinary excretion of uridine” value in series [4] (high doses of uridine (1 to 3 gm/m^2), several times per day) is 15-40 % of the dose. Besides, the toxic side effects result in series [4] (high doses of uridine) was “phlebitis, pyrogenic reactions and diarrhea”. The “concentration in blood plasma” value in [5] (endogenous, different species) was 1 to 5 µM. For the same compound, the “plasma uridine entering the liver by the portal vein degraded in single pass” value in series [5] (hepatic uridine phosphorylase) was “More than 90%”. In series [5] (in vivo), the “half life in the plasma” value was “approximately 2 minutes”. Besides, the “protection (and reversal) from myelosuppression of pyrimidine analogues” value in the series on bone marrow cell growth (in vitro and in vivo) is listed as “Complete protection (and reversal)”. Further, the “conjugating and excretory functions” value with CCl4 damaged rat livers was “normalize conjugating and excretory functions”. The “effect on the GABA receptor” value in the series with GABA receptor is “may have an agonist effect on the receptor”. For the same compound, in series [7], the “glucose uptake and glycogen synthesis” value was “increase glucose uptake and glycogen synthesis”. Further, the “management of patients with hereditary orotic aciduria” value in series [8] was “effective to manage patients with hereditary orotic aciduria”.
With `Cc1cn([C@H]2C[C@H](N=[N+]=[N-])[C@@H](CO)O2)c(=O)[nH]c1=O` [AZT, 3'-azido-3'-deoxythymidine], in the series on bone marrow cell growth, the limiting toxicity entry is listed as “myelosuppression”.
For `COc1cc(C(=O)OCCCN2CCCN(CCCOC(=O)c3cc(OC)c(OC)c(OC)c3)CC2)cc(OC)c1OC` [dilazep, N,N'-bis[3-(3,4,5-trmethoxybenzoyloxy)propyl] homopiperazine], the toxicity result in series [9] is reported as “without apparent toxicity”.
As for `O=c1[nH]c(=O)n([C@H]2C[C@H](O)[C@@H](CO)O2)cc1F` [FdUrd, 5-fluoro-2'-deoxyuridine], in the series with bone marrow cell growth, the limiting toxicity result is listed as “myelosuppression”.
Regarding `O=c1[nH]cc(F)c(=O)[nH]1` [5-FU, 5-fluorouracil], in the series on bone marrow cell growth, the limiting toxicity entry is recorded as “myelosuppression”.
